Assay results: patent US12077503B2, “Substituted cyclic amides and their use as herbicides” (FMC CORPORATION, priority 2015, dated 2024)

Tests used:
Format in all cases: in vivo
[1] = test system: barnyardgrass (Echinochloa crus-galli); assay: Test G Pre-Emergence Protocol; settings: Echinochloa crus-galli, pre-emergence, 312 h, evaluated after 13 days; for pest or weed control at 15.625 g/ha: 15.625 g ai/ha, read-out: Barnyard grass damage rating (100=total damage to plant; 0=no damage to plant); for pest or weed control at 62.5 g/ha: 62.5 g ai/ha, 100=total damage to plant, 0=no damage to plant, read-out: plant damage rating, Barnyardgrass; for pest or weed control at 250 g/ha: 250 g ai/ha, read-out: Barnyardgrass damage rating (100=total damage to plant; 0=no damage to plant)
In short: (§1)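 One day after sowing, pots are treated with a spray of test compound formulated in acetone/water 50:50 plus 0.5% Tween 20, giving 15.625, 62.5 or 250 g/ha. Evaluation on a 0–100 damage scale follows 13 days of glasshouse growth.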

corn (Zea mays) [2] = assay: Test G Pre-Emergence Protocol; settings: Zea mays, pre-emergence, 312 h, evaluated after 13 days; for plant injury at 15.625 g/ha: 15.625 g ai/ha; for plant injury at 15.625 g/ha / plant injury at 250 g/ha: read-out: Corn damage rating (100=total damage to plant; 0=no damage to plant); for plant injury at 62.5 g/ha: 62.5 g ai/ha, 100=total damage to plant, 0=no damage to plant, read-out: plant damage rating, Corn; for plant injury at 250 g/ha: 250 g ai/ha
In short: as §1

[3] = test system: ivy-leaved morning glory (Ipomoea hederacea); assay: Test G Pre-Emergence Protocol; settings: Ipomoea, pre-emergence, 312 h, evaluated after 13 days; for pest or weed control at 15.625 g/ha: 15.625 g ai/ha, read-out: Morning-glory, Ivy-leaved damage rating (100=total damage to plant; 0=no damage to plant); for pest or weed control at 62.5 g/ha: 62.5 g ai/ha, 100=total damage to plant, 0=no damage to plant, read-out: plant damage rating, Morningglory, Ivy-leaved; for pest or weed control at 250 g/ha: 250 g ai/ha, read-out: Morningglory, Ivy-leaved damage rating (100=total damage to plant; 0=no damage to plant)
In short: as §1

[4] = test system: redroot pigweed (Amaranthus retroflexus); assay: Test G Pre-Emergence Protocol; settings: Amaranthus retroflexus, pre-emergence, 312 h, evaluated after 13 days; for pest or weed control at 15.625 g/ha: 15.625 g ai/ha; for pest or weed control at 15.625 g/ha / pest or weed control at 250 g/ha: read-out: Pigweed, Redroot damage rating (100=total damage to plant; 0=no damage to plant); for pest or weed control at 62.5 g/ha: 62.5 g ai/ha, 100=total damage to plant, 0=no damage to plant, read-out: plant damage rating, Pigweed, Redroot; for pest or weed control at 250 g/ha: 250 g ai/ha
In short: as §1

[5] = test system: velvetleaf (Abutilon theophrasti); assay: Test G Pre-Emergence Protocol; settings: Abutilon theophrasti, pre-emergence, 312 h, evaluated after 13 days; for pest or weed control at 15.625 g/ha: 15.625 g ai/ha; for pest or weed control at 15.625 g/ha / pest or weed control at 250 g/ha: read-out: Velvetleaf damage rating (100=total damage to plant; 0=no damage to plant); for pest or weed control at 62.5 g/ha: 62.5 g ai/ha, 100=total damage to plant, 0=no damage to plant, read-out: plant damage rating, Velvetleaf; for pest or weed control at 250 g/ha: 250 g ai/ha
In short: as §1

[6] = test system: giant foxtail (Setaria faberi); assay: Test G Pre-Emergence Protocol; settings: Setaria faberi, pre-emergence, 312 h, evaluated after 13 days; for pest or weed control at 15.625 g/ha: 15.625 g ai/ha; for pest or weed control at 15.625 g/ha / pest or weed control at 250 g/ha: read-out: Foxtail, Giant damage rating (100=total damage to plant; 0=no damage to plant); for pest or weed control at 62.5 g/ha: 62.5 g ai/ha, 100=total damage to plant, 0=no damage to plant, read-out: plant damage rating, Foxtail, Giant; for pest or weed control at 250 g/ha: 250 g ai/ha
In short: as §1

[7] = test system: barnyardgrass (Echinochloa crus-galli); assay: Test G Post-Emergence Protocol; settings: Echinochloa crus-galli, post-emergence, 312 h; for pest or weed control at 15.625 g/ha: 15.625 g ai/ha, evaluated after 13 days (100=total damage to plant; 0=no damage to plant), read-out: Barnyardgrass damage rating; for pest or weed control at 62.5 g/ha: 62.5 g ai/ha, read-out: Barnyardgrass damage rating (100=total damage to plant; 0=no damage to plant); for pest or weed control at 62.5 g/ha / pest or weed control at 250 g/ha: evaluated after 13 days; for pest or weed control at 250 g/ha: 250 g ai/ha, read-out: damage to plant, Barnyardgrass (100=total damage to plant; 0=no damage to plant)
In short: (§2)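 Scores run 0 (no damage) to 100 (total damage) and were taken 13 days after spraying. Plants had been raised in pots for 8 days under glasshouse control (24/16 °C, 14 h photoperiod, 65% humidity) and then treated at 15.625, 62.5 or 250 g/ha.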

corn (Zea mays) [8] = assay: Test G Post-Emergence Protocol; settings: Zea mays, post-emergence, 312 h; for plant injury at 15.625 g/ha: 15.625 g ai/ha, evaluated after 13 days (100=total damage to plant; 0=no damage to plant), read-out: Corn damage rating; for plant injury at 62.5 g/ha: 62.5 g ai/ha, read-out: Corn damage rating (100=total damage to plant; 0=no damage to plant); for plant injury at 62.5 g/ha / plant injury at 250 g/ha: evaluated after 13 days; for plant injury at 250 g/ha: 250 g ai/ha, read-out: damage to plant, Corn (100=total damage to plant; 0=no damage to plant)
In short: as §2

[9] = test system: ivy-leaved morning glory (Ipomoea hederacea); assay: Test G Post-Emergence Protocol; settings: Ipomoea, post-emergence, 312 h; for pest or weed control at 15.625 g/ha: 15.625 g ai/ha, evaluated after 13 days (100=total damage to plant; 0=no damage to plant), read-out: Morningglory, Ivy-leaved damage rating; for pest or weed control at 62.5 g/ha: 62.5 g ai/ha, read-out: Morningglory, Ivy-leaved damage rating (100=total damage to plant; 0=no damage to plant); for pest or weed control at 62.5 g/ha / pest or weed control at 250 g/ha: evaluated after 13 days; for pest or weed control at 250 g/ha: 250 g ai/ha, read-out: damage to plant, Morningglory, Ivy-leaved (100=total damage to plant; 0=no damage to plant)
In short: as §2

[10] = test system: redroot pigweed (Amaranthus retroflexus); assay: Test G Post-Emergence Protocol; settings: Amaranthus retroflexus, post-emergence, 312 h; for pest or weed control at 15.625 g/ha: 15.625 g ai/ha, evaluated after 13 days (100=total damage to plant; 0=no damage to plant), read-out: Pigweed, Redroot damage rating; for pest or weed control at 62.5 g/ha: 62.5 g ai/ha, read-out: Pigweed, Redroot damage rating (100=total damage to plant; 0=no damage to plant); for pest or weed control at 62.5 g/ha / pest or weed control at 250 g/ha: evaluated after 13 days; for pest or weed control at 250 g/ha: 250 g ai/ha, read-out: damage to plant, Pigweed, Redroot (100=total damage to plant; 0=no damage to plant)
In short: as §2

[11] = test system: velvetleaf (Abutilon theophrasti); assay: Test G Post-Emergence Protocol; settings: Abutilon theophrasti, post-emergence, 312 h; for pest or weed control at 15.625 g/ha: 15.625 g ai/ha, evaluated after 13 days (100=total damage to plant; 0=no damage to plant), read-out: Velvetleaf damage rating; for pest or weed control at 62.5 g/ha: 62.5 g ai/ha, read-out: Velvetleaf damage rating (100=total damage to plant; 0=no damage to plant); for pest or weed control at 62.5 g/ha / pest or weed control at 250 g/ha: evaluated after 13 days; for pest or weed control at 250 g/ha: 250 g ai/ha, read-out: damage to plant, Velvetleaf (100=total damage to plant; 0=no damage to plant)
In short: as §2

[12] = test system: giant foxtail (Setaria faberi); assay: Test G Post-Emergence Protocol; settings: Setaria faberi, post-emergence, 312 h; for pest or weed control at 15.625 g/ha: 15.625 g ai/ha, evaluated after 13 days (100=total damage to plant; 0=no damage to plant), read-out: Foxtail, Giant damage rating; for pest or weed control at 62.5 g/ha: 62.5 g ai/ha, read-out: Foxtail, Giant damage rating (100=total damage to plant; 0=no damage to plant); for pest or weed control at 62.5 g/ha / pest or weed control at 250 g/ha: evaluated after 13 days; for pest or weed control at 250 g/ha: 250 g ai/ha, read-out: damage to plant, Foxtail, Giant (100=total damage to plant; 0=no damage to plant)
In short: as §2

SMILES | pest or weed control at 15.625 g/ha [1] [%] | pest or weed control at 62.5 g/ha [1] [%] | pest or weed control at 250 g/ha [1] [%] | plant injury at 15.625 g/ha (corn (Zea mays) [2]) [%] | plant injury at 62.5 g/ha (corn (Zea mays) [2]) [%] | plant injury at 250 g/ha (corn (Zea mays) [2]) [%] | pest or weed control at 15.625 g/ha [3] [%] | pest or weed control at 62.5 g/ha [3] [%] | pest or weed control at 250 g/ha [3] [%] | pest or weed control at 15.625 g/ha [4] [%] | pest or weed control at 62.5 g/ha [4] [%] | pest or weed control at 250 g/ha [4] [%] | pest or weed control at 15.625 g/ha [5] [%] | pest or weed control at 62.5 g/ha [5] [%] | pest or weed control at 250 g/ha [5] [%] | pest or weed control at 15.625 g/ha [6] [%] | pest or weed control at 62.5 g/ha [6] [%] | pest or weed control at 250 g/ha [6] [%] | pest or weed control at 15.625 g/ha [7] [%] | pest or weed control at 62.5 g/ha [7] [%] | other results
COc1cc([C@H]2CN(C)C(=O)[C@@H]2C(=O)Nc2ccccc2F)ccc1Cl (racemic) [Compound 1421] | 10 | 60 | 80 | 0 | 0 | 10 | 0 | 0 | 0 | 0 | 0 | 0 | 0 | 0 | 0 | 70 | 80 | 90 | 0 | 20 | pest or weed control at 250 g/ha [7]: 20%; plant injury at 15.625 g/ha (corn (Zea mays) [8]): 10%; plant injury at 62.5 g/ha (corn (Zea mays) [8]): 10%; plant injury at 250 g/ha (corn (Zea mays) [8]): 10%; pest or weed control at 15.625 g/ha [9]: 10%; pest or weed control at 62.5 g/ha [9]: 0%; pest or weed control at 250 g/ha [9]: 0%; pest or weed control at 15.625 g/ha [10]: 0%; pest or weed control at 62.5 g/ha [10]: 0%; pest or weed control at 250 g/ha [10]: 0%; pest or weed control at 15.625 g/ha [11]: 10%; pest or weed control at 62.5 g/ha [11]: 0%; pest or weed control at 250 g/ha [11]: 0%; pest or weed control at 15.625 g/ha [12]: 20%; pest or weed control at 62.5 g/ha [12]: 40%; pest or weed control at 250 g/ha [12]: 50%
CN1C[C@@H](c2ccc(C(F)(F)F)cc2)[C@H](C(=O)Nc2cc(C(F)(F)F)n(C)n2)C1=O (racemic) [Compound 1512] | 0 | 0 | 0 | 0 | 0 | 0 | 0 | 0 | 0 | 0 | 0 | 0 | 0 | 0 | 0 | 0 | 0 | 0 | 0 | 0 | pest or weed control at 250 g/ha [7]: 0%; plant injury at 15.625 g/ha (corn (Zea mays) [8]): 0%; plant injury at 62.5 g/ha (corn (Zea mays) [8]): 0%; plant injury at 250 g/ha (corn (Zea mays) [8]): 0%; pest or weed control at 15.625 g/ha [9]: 0%; pest or weed control at 62.5 g/ha [9]: 0%; pest or weed control at 250 g/ha [9]: 0%; pest or weed control at 15.625 g/ha [10]: 0%; pest or weed control at 62.5 g/ha [10]: 0%; pest or weed control at 250 g/ha [10]: 0%; pest or weed control at 15.625 g/ha [11]: 0%; pest or weed control at 62.5 g/ha [11]: 0%; pest or weed control at 250 g/ha [11]: 0%; pest or weed control at 15.625 g/ha [12]: 0%; pest or weed control at 62.5 g/ha [12]: 0%; pest or weed control at 250 g/ha [12]: 0%
